{
  "source": "patent US20150038333A1",
  "about": "“PLANT PROTECTIVE COMPOSITION CONTAINING ALPHA-HYDROXY ACIDS” (HELMHOLTZ ZENTRUM MÜNCHEN DEUTSCHES FORSCHUNGSZENT -RUN FÜR …, priority 2011, published 2015)",
  "key": {"UGT76B1": {"target": "T1, UGT76B1 (Arabidopsis thaliana, UniProt Q9C768)", "T1 construct": "The UGT76B1 open reading frame was amplified with the same primers as used for the construction of the overexpression lines; made in house", "T1 sequence (Q9C768 1-447)": "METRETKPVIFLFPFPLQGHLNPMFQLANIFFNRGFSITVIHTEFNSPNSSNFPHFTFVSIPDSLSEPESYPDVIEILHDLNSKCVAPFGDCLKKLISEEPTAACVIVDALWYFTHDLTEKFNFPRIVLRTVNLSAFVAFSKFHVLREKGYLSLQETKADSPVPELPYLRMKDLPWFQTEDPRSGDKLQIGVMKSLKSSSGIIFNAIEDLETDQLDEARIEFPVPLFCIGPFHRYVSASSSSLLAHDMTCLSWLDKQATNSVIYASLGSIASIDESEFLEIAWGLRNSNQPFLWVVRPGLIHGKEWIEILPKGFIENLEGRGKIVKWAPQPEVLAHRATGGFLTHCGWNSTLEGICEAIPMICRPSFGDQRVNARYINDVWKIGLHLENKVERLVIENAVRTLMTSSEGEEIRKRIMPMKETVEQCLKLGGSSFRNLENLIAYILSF", "assay": "In vitro glucosyltransferase activity assay of recombinant UGT76B1", "type": "biochemical", "conditions": "0.5 mM aglycone, 5 mM UDP-glucose, 1 hour at 30° C., analyzed by mass spectrometry", "text": "A glutathione-S-transferase (GST)-UGT761 expression plasmid was constructed using pDEST15 (Invitrogen, Germany). The UGT76B1 open reading frame was amplified with the same primers as used for the construction of the overexpression lines. The recombinant protein was affinity-purified using a glutathione-coupled sepharose beads according to the manufacturer's instructions (GE Healthcare, Germany), concentrated by membrane filtration (Amicon Ultra-4; Millipore, Germany) and supplemented with 20% glycerol for storage at −20° C. (Messner et al., 2003). To analyze the UGT enzyme activity assay mixtures contained 0.1 M Tris-HCl (pH 7.5), 5 mM UDP-glucose, 0.5 mM aglycone and about 1 μg fusion protein in a final volume of 50 μL. After incubation for 1 hour at 30° C. the reaction was stopped by addition of 200 μL methanol and cleared by centrifugation. Reactions were diluted 1:50 in 70% methanol (except for valic acid, which was used without dilution) and analyzed on a API4000 mass spectrometer using direct injection into the electrospray source at a flow rate of […]. 150 Scans were accumulated for each measurement in dual ion monitoring mode, which was adjusted to monitor ions at nominal m/z ratios of the corresponding expected substrate and product peaks with a mass range of ±5 Da."}, "[1]": {"system": "defence marker genes PR1, PDF1.2 and VSP2", "assay": "Defense marker gene expression in Col-0 plants after spraying with α-hydroxy-acid (RTqPCR)", "type": "in vivo, Arabidopsis", "conditions": "for expression of defense marker genes (PR1 and PDF1.2): 4-week-old Col-0 plants, 24 h after treatment, 1 mM in water, preliminary, two biological replicates", "protocol": "Rosette leaves of the indicated age were collected. Total RNA was isolated using the RNeasy Plant Mini Kit (Qiagen, Germany). RNA integrity and amount was analyzed by gel electrophoresis and by spectrophotometry. One microgram of total RNA was reverse transcribed using a SuperScript II reverse transcription-PCR kit (Invitrogen; Germany) according to the manufacturer's instructions. Gene-specific primer pairs were designed using the Primer Express 3.0 software. […] Real time quantification was performed using a 7500 real time PCR system (Applied Biosystems, Germany). Individual PCR reaction mixtures contained 4 μL of diluted cDNA, 10 μL of Sybr Green Mastermix (Thermo Scientific, Germany) and […] of each primer in a final volume of 20 μL. In all experiments, three biological replicates of each sample and two technical (PCR) replicates were performed. The amount of target gene was normalized over the abundance of the constitutive UBQ5 (At3g62250) and S16 (At5g18380, At2g09990) genes. The stability of the reference genes was tested and normalization was performed using GeNorm (Vandesompele et al., 2002). For RTqPCR of infected material, plants were infected as described below. Three biological replicates were analyzed; each consisted of six individually infected leaves. Plant material was harvested before infection and mock treatments (time point 0) and at the indicated time points after treatment. Each experiment was repeated with similar results.\nFor isoleucic acid treatment, 4-week-old plants were sprayed with 0.5 or 1 mM isoleucic acid (diluted in water) or only water for mock treatments. Plants were covered with a plexiglass lid until the surface of the leaves became dry. The fifth to eighth true leaves of each plant were harvested 24 hours after treatment. Four leaves from three independent plants were pooled for each replicate and analyzed by real-time PCR."}, "[2]": {"system": "P. syringae pv. tomato DC3000 (avrRpm1) (Ps-avir)", "assay": "Bacterial growth in Arabidopsis leaves of wild-type plants sprayed with ILA before infection", "type": "in vivo, Pseudomonas syringae", "protocol": "FIG. 14: Direct effect of exogenously applied ILA on pathogen defence. Bacterial growth in Arabidopsis leaves of wild-type plants sprayed with water (blank) or 1 mM ILA (dotted) 24 h or 72 h before infection. Plants were inoculated with 5*10^5 cfu ml^−1 of Ps-avir and bacteria (cfu cm^−2) were quantified 0 and 3 days after inoculation. The graphs represent the means and standard deviations of three replicates.\nBacterial strains used in this study include Pseudomonas syringae pv. tomato DC3000 (Ps), P. syringae pv. tomato DC3000 (avrRpm1) (Ps-avir). Bacteria were grown overnight at 28° C. in King's B medium with appropriate antibiotics and diluted to 5*10^5 cfu mL^−1 with 10 mM MgCl2 for plant inoculation. Whole leaves of 5- to 6-week-old plants were infiltrated using a 1-mL syringe without a needle. Control plants were infiltrated with 10 mM MgCl2. Leaf discs from control treated and infected plants were harvested from inoculated leaves at 0, 1 and 3 d after infiltration. Bacterial growth was assessed as described previously (Katagiri et al., 2002). For each time point, three samples were made by pooling six leaf discs from three different treated plants."}, "[3]": {"system": "pathogen responsive genes PR1 and PR10", "assay": "Induction of defence genes in barley leaves (semiquantitative PCR)", "type": "in vivo, Hordeum vulgare", "conditions": "2-week-old plants sprayed with 1 mM ILA, 48 h after treatment", "protocol": "Total RNA was isolated using the RNeasy Plant Mini Kit (Qiagen, Germany). RNA integrity and amount was analyzed by gel electrophoresis and by spectrophotometry. One microgram of total RNA was reverse transcribed using a QuantiTect reverse transcription-PCR kit (Qiagen; Germany) according to the manufacturer's instructions. The following gene-specific primer pairs were kindly provided by Corina Vlot: EF1A_Hv_f (5′-[…]-3′) and EF1A_Hv_r (5′-[…]-3′) for the barley reference gene EF1A; PR1_Hv_f (5′-[…]-3′) and PR1_Hv_r (5′-[…]-3′) for barley PR1; Hv, PR10_Hv_f (5′-[…]-3′) and PR10_Hv_r (5′-[…]-3′) for barley PR10. PCR fragments were amplified using the indicated number of PCR cycles (FIG. 17) and separated on a 2% agarose gel containing ethidium bromide.\nFor ILA treatment in barley, 2-week-old plants were sprayed with either 1 mM ILA or 0.25 mg/ml BTH (benzothiadiazole/BION™), dissolved in water with 0.01% tween. For mock treatment, plants were sprayed only with water containing 0.01% tween. Leaves were harvested 48 hours after treatment and analyzed by semiquantitative PCR."}, "[4]": {"conditions": "leaves of four-week-old Col-0 plants, 24 h after spraying isoleucic acid solution"}},
  "data": [
    {"smiles": "CCC(O)(CC)C(=O)O", "note": "[2-ethyl-2-hydroxybutyric acid]", "values": [
      {"measurement": "glucosylation by recombinant UGT76B1", "setting": "UGT76B1", "value": "no activity"}
    ]},
    {"smiles": "CCCCCCC(O)C(=O)O", "note": "(stereo not drawn) [2-hydroxy-octanoic acid]", "values": [
      {"measurement": "expression of defense marker genes (PR1 and PDF1.2)", "setting": "[1]", "value": "can also induce"}
    ]},
    {"smiles": "CCC(C)C(O)C(=O)O", "note": "(stereo not drawn) [isoleucic acid, 2-hydroxy-3-methylpentanoic acid]", "values": [
      {"measurement": "glucosylation by recombinant UGT76B1", "setting": "UGT76B1", "value": "glucosylated"},
      {"measurement": "PDF1.2 expression relative to mock (water) treatment", "setting": "[1]; [4]", "value": "tendency for induction"},
      {"measurement": "VSP2 expression relative to mock (water) treatment", "setting": "[1]; [4]", "value": "only marginally suppressed"},
      {"measurement": "PR1 expression relative to mock (water) treatment", "setting": "[1]; leaves of four-week-old Col-0 plants, 24 h after spraying isoleucic acid solution (0.5 or 1 mM)", "value": "more than tenfold induced"},
      {"measurement": "persistence of increased resistance after ILA spraying", "setting": "[2]; 1 mM ILA sprayed 24 h or 72 h before Ps-avir infection", "value": "1 to 3", "unit": "days"},
      {"measurement": "bacterial growth compared with mock treatment", "setting": "[2]; 1 mM ILA sprayed 24 h or 72 h before infection with 5*10^5 cfu ml^-1 Ps-avir, bacteria quantified 3 days after inoculation", "value": "about four- to fivefold less bacterial growth"},
      {"measurement": "PR1 transcript level in barley", "setting": "[3]", "value": "induces"},
      {"measurement": "PR10 transcript level in barley", "setting": "[3]", "value": "induces"}
    ]},
    {"smiles": "CC(C)[C@H](O)C(=O)O", "note": "[valic acid, (S)-(+)-2-hydroxy-3-methylbutyric acid]", "values": [
      {"measurement": "glucosylation by recombinant UGT76B1", "setting": "UGT76B1", "value": "able to glucosylate"},
      {"measurement": "expression of defense marker genes (PR1 and PDF1.2)", "setting": "[1]", "value": "can also induce"}
    ]}
  ]
}
